Experimental data: paper PMC11982978, “Cancer hotspot mutations rewire ERK2 specificity by selective exclusion of docking interactions” (The Journal of Biological Chemistry, 2025)
pIC50: −log10 of the molar value. “And” between values parts separate entries of the source, which are not always exact repeats. Equal values may be shown once.

Tests used:
ERK2 WT = target: T1, ERK2 WT (Mus musculus, UniProt P63085); experiment: Competitive peptide kinase assay (D-peptide inhibition), ERK2 WT; format: biochemical; conditions: Table 2, 5 μM D-site dependent reporter peptide, 10 nM ERK2, 10 μM ATP, pH 7.4, fluorescence, mean of three independent replicates
T1 construct: His6; made in house; host or cells: E. coli BL21(DE3), co-expressed with GST-MEK1ΔN3
T1 sequence (P63085 whole entry): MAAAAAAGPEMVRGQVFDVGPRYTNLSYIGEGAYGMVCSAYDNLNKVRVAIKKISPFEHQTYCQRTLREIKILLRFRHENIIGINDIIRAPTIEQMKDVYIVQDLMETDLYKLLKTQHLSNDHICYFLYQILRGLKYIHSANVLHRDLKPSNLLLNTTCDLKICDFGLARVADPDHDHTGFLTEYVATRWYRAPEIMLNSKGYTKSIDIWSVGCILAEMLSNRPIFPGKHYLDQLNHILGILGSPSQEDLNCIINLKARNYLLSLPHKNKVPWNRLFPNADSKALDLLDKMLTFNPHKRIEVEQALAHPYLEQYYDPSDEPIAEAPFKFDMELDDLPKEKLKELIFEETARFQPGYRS
Description: (§5) We determined relative binding affinities for D-peptides from their potency as competitive inhibitors of WT or mutant ERK2 activity on a D-site-dependent reporter substrate peptide (Table S1, Fig. 3A, S3).
(§6) Competitive peptide kinase assays were performed with a D-site dependent MAPK reporter substrate peptide (AssayQuant Technologies Inc, #AQT0376) as we reported previously ([15]). Briefly, 5 μM of reporter peptide was mixed with various concentrations of D-peptides in reaction buffer (54 mM HEPES [pH 7.4], 1.2 mM DTT, 0.01% Brij-35, 1% glycerol, 0.2 mg/ml BSA, and 10 mM MgCl2). […] Phosphorylation of the reporter peptide was measured by fluorescence (λex 360 nm, λem 485 nm) in 90 s intervals over 21 min in a Spectra M5 plate reader. Rates were calculated from the linear portion of the reaction progress curve, and data were normalized to maximum (samples lacking competitor peptide) and minimum (control reactions lacking kinase) values. Normalized rates were plotted against D-peptide concentration and fitted into a sigmoidal dose-response curve to determine the IC50 values using GraphPad Prism (Version 9.3.0).

WT ERK2 [1] = experiment: Y2H D-site library screen, WT ERK2; format: cell-based, rat; design: key: ES = slope of ln(Ft/F0) vs number of yeast population doublings; conditions: mutant ES is the combined average ES from the D319N and E320K screens
Text: (§1) To examine how cancer-associated CD site mutations affect the scope of ERK2 docking interactions, we adopted a Y2H strategy that we previously applied to define the D-site interactome of WT ERK2 ([15]). This system reports on interactions between ERK2 and a fragment of its substrate ELK1 that harbors a docking site essential for binding (Fig. 1C). The system thus evaluates the binding of potential sequences by substituting them for the native ELK1 docking site. We transformed Y2H strains with a bait plasmid expressing the Gal4 DNA-binding domain (DBD) fused to WT or CD mutant forms of rat ERK2 (R133K, D319N or E320K, equivalent respectively to human R135K, D321N and E322K), along with a prey plasmid expressing Gal4 activation domain (AD) fused to the ELK1 fragment harboring various docking site sequences. We then assayed these strains for growth on solid media under non-selective (+His) and selective conditions (−His) to detect interactions (Fig. 1D).
(§2) We previously used the Y2H system to screen WT ERK2 against a pooled library of 11,756 ELK1 variants incorporating potential docking sites from the human proteome ([15]). To identify interacting sequences either gained or lost upon ERK2 CD site mutation, we screened the same library against ERK2^D319N and ERK2^E320K. Yeast expressing ERK2 mutant bait plasmids were transformed with the ELK1 library pool and subjected to competitive growth under selective (−His) and non-selective conditions (+His) in parallel. Cultures were sampled periodically over ∼7 population doublings. The DNA sequence encoding the variable docking site region was PCR amplified and analyzed by next-generation sequencing (Fig. 2A, Dataset S1). The change in sequence abundance over time was fitted to an exponential function to assign an enrichment score (ES) to each docking site, where a higher ES indicates a greater increase in sequence abundance as the population grows. A significant enrichment of docking site sequences was observed only under selective conditions (Figs. 2B, S1). For each mutant, we observed generally good reproducibility across three independently conducted screens albeit with some sequences enriched in only a single replicate (Fig. S2, A and B). Average ES scores for the E320K and D319N mutant screens were better correlated with each other (R = 0.83) than were average ES scores for either mutant compared to WT ERK2 (R = 0.67 for WT versus D319N, R = 0.63 for WT versus E320K) (Fig. S2C).
(§3) To compare sequences selected by CD mutants with those selected by WT ERK2, we defined those sequences with an ES equal to or higher than three standard deviations from the mean (Z > 3) as hits. Using this cutoff, we obtained 121, 127, and 153 hits sequences from the WT, D319N, and E320K screens, respectively (Fig. 2C, Dataset S2).
(§4) Yeast harboring pGBT9-ERK2^E320K or pGBT9-ERK2^D319N were transformed with the pGADGH-ELK1 D-site library plasmid pool. Transformants (10–40 colonies per library component) were suspended in SD-Leu-Trp media, diluted to an OD600 of 0.1, and cultured in a shaking incubator at 30 °C to an OD600 of 1.0. The resulting culture was used to initiate a competitive selection screen. Cell growth, sample collection and data analysis were performed exactly as described previously for WT ERK2 ([15]). The frequency (F) of each D-site sequence at a given time point (t) was calculated by dividing the number of reads by the total read count for all sequences. For each sequence, a plot of ln(Ft/F0) as a function of the number of yeast population doublings was fit to a line, and the enrichment score (ES) for that sequence was defined as the slope of this line. Illumina sequencing reads, calculated ES, and Z scores for each screen are provided in Dataset S1.

WT ERK2 [2] = conditions: selective conditions (-His); hits Z > 3; average of three screens; cited from earlier work
Text: Supplement mmc2.xlsx, sheet "WT Hits" | column: Z-score

ERK2 E322K = target: T2, ERK2 E322K (Mus musculus, UniProt P63085, E320K); experiment: Competitive peptide kinase assay (D-peptide inhibition), ERK2 E322K; format: biochemical; conditions: Table 2, 5 μM reporter peptide, 10 nM ERK2, 10 μM ATP, mean of three independent replicates, read-out: IC50, ERK2 E322 K
T2 construct: His6; made in house; host or cells: E. coli BL21(DE3), co-expressed with GST-MEK1ΔN3
T2 sequence (P63085 whole entry E320K): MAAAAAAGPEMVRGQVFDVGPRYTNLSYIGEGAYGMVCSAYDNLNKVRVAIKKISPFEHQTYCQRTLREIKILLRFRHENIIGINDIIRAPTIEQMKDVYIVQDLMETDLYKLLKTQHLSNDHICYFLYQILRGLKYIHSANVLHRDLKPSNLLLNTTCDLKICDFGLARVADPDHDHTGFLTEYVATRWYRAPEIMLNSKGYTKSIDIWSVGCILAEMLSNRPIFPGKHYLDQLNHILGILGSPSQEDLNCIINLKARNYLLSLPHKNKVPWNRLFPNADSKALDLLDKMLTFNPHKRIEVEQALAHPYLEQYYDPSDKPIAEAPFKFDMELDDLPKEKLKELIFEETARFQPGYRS
Description: as §5, §6

ERK2 D319N = experiment: Y2H D-site library screen, ERK2 D319N; format: cell-based, rat; design: key to ES, +His / ES, -His: ES = slope of ln(Ft/F0) vs number of yeast population doublings
Text: as §1, §2, §3, §4

ERK2 E320K = experiment: Y2H D-site library screen, ERK2 E320K; format: cell-based, rat; design: key to ES, +His / ES, -His: ES = slope of ln(Ft/F0) vs number of yeast population doublings
Text: as §1, §2, §3, §4

[3] = Average of 3 Replicate Screens, non-selective
[4] = Average of 3 Replicate Screens, selective
[5] = Average of 3 Replicate Experiments, non-selective
[6] = Average of 3 Replicate Experiments, selective

Row | Molecule | WT ES - mutant ES (WT ERK2 [1]) | Z-score (ES) of hit sequences, WT ERK2 Y2H screen (WT ERK2 [2]) | further results
1 | CC[C@H](C)[C@H](NC(=O)[C@H](C)NC(=O)[C@@H](N)Cc1ccc(O)cc1)C(=O)N[C@@H](CCCNC(=N)N)C(=O)N[C@@H](C)C(=O)N[C@@H](CCCNC(=N)N)C(=O)N[C@@H](CCCNC(=N)N)C(=O)N[C@@H](CCC(N)=O)C(=O)N[C@@H](CC(C)C)C(=O)N1CCC[C@H]1C(=O)N[C@@H](CCCNC(=N)N)C(=O)N[C@@H](CC(C)C)C(=O)N[C@@H](C)C(=O)N[C@H](C(=O)N[C@@H](CO)C(=O)N[C@@H](CC(=O)O)C(=O)O)C(C)C [ISG20 peptide G6Q] | – | – | pIC50 (ERK2 WT): 4.39
2 | CLSWKRMAGIFFLP [GLB1L3, D-site 14-mer in ELK1 Y2H prey] | 0.781 | 14.12 | –
3 | RRMRRAGQALKLPS [HAS3, D-site 14-mer in ELK1 Y2H prey] | 0.310 | 7.82 | –
4 | RLRNRNCLELKIKD [ANKRD12, D-site 14-mer in ELK1 Y2H prey] | 0.443 | 10.11 | –
5 | ILLRRSLEAIELGL [KLC2, D-site 14-mer in ELK1 Y2H prey] | 0.282 | 5.90 | –
6 | RSKLRKPKPVPLRK [TACC1, D-site 14-mer in ELK1 Y2H prey] | 0.162 | 5.18 | –
7 | PLFLRRKPVLSFQG [LIG3, D-site 14-mer in ELK1 Y2H prey] | 0.487 | 10.87 | –
8 | LYKRRKESILTIQK [ASPM, D-site 14-mer, start residue 1508, in ELK1 Y2H prey] | 0.329 | 7.80 and 6.10 | –
9 | IRARRGLPRLAVSD [ISG20, D-site 14-mer in ELK1 Y2H prey] | 0.761 | 14.42 | –
10 | CC[C@H](C)[C@H](NC(=O)[C@H](C)NC(=O)[C@@H](N)Cc1ccc(O)cc1)C(=O)N[C@@H](CCCNC(=N)N)C(=O)N[C@@H](C)C(=O)N[C@@H](C)C(=O)N[C@@H](CCCNC(=N)N)C(=O)NCC(=O)N[C@@H](CC(C)C)C(=O)N1CCC[C@H]1C(=O)N[C@@H](CCCNC(=N)N)C(=O)N[C@@H](CC(C)C)C(=O)N[C@@H](C)C(=O)N[C@H](C(=O)N[C@@H](CO)C(=O)N[C@@H](CC(=O)O)C(=O)O)C(C)C [ISG20 peptide R4A] | – | – | pIC50 (ERK2 E322K): 3.52
11 | RLLWRRLKPLILGK [ABCA7, D-site 14-mer in ELK1 Y2H prey] | 0.266 | 5.86 | –
12 | LWTRRRSERIFLHD [TNRC18, D-site 14-mer in ELK1 Y2H prey] | 0.332 | 7.78 | –
13 | CC[C@H](C)[C@H](NC(=O)[C@H](C)NC(=O)[C@@H](N)Cc1ccc(O)cc1)C(=O)N[C@@H](CCCNC(=N)N)C(=O)N[C@@H](C)C(=O)N[C@@H](CCCNC(=N)N)C(=O)N[C@@H](C)C(=O)NCC(=O)N[C@@H](CC(C)C)C(=O)N1CCC[C@H]1C(=O)N[C@@H](CCCNC(=N)N)C(=O)N[C@@H](CC(C)C)C(=O)N[C@@H](C)C(=O)N[C@H](C(=O)N[C@@H](CO)C(=O)N[C@@H](CC(=O)O)C(=O)O)C(C)C [ISG20 peptide R5A] | – | – | pIC50 (ERK2 E322K): 3.40
14 | RLQERRGSNVALML [PTPN7, D-site 14-mer in ELK1 Y2H prey] | 0.474 | 9.09 | –
15 | HLSRHKIIHIGIHT [ZNF493, D-site 14-mer in ELK1 Y2H prey] | 0.221 | 5.90 | –
16 | RRRGRPPKRIHISQ [BAZ1A, D-site 14-mer in ELK1 Y2H prey] | 0.150 | 4.55 | –
17 | GSRCARIFRLVLQK [POLR3C, D-site 14-mer in ELK1 Y2H prey] | 0.285 | 6.39 | –
18 | CC[C@H](C)[C@H](NC(=O)[C@H](CCCNC(=N)N)NC(=O)[C@H](C)NC(=O)[C@@H](N)Cc1ccc(O)cc1)C(=O)N[C@@H](C)C(=O)N[C@@H](CCCNC(=N)N)C(=O)N[C@@H](CCCNC(=N)N)C(=O)NCC(=O)N[C@@H](CC(C)C)C(=O)N1CCC[C@H]1C(=O)N[C@@H](CCCNC(=N)N)C(=O)N[C@@H](CC(C)C)C(=O)N[C@@H](C)C(=O)N[C@H](C(=O)N[C@@H](CO)C(=O)N[C@@H](CC(=O)O)C(=O)O)C(C)C [ISG20 peptide I1R/R2I] | – | – | pIC50 (ERK2 WT): 3.70
19 | TRHERNYTKVNFCK [ZNF675, D-site 14-mer in ELK1 Y2H prey] | 0.359 | 7.60 | –
20 | RQIRASKGIVVLEE [KANSL1L, D-site 14-mer in ELK1 Y2H prey] | – | – | ES, +His (ERK2 D319N; [3]): -0.009508; Z-Score, +His (ERK2 D319N; [3]): -0.257; ES, -His (ERK2 D319N; [4]): -0.1275; Z-Score, -His (ERK2 D319N; [4]): -0.06943; ES, +His (ERK2 D319N; Experiment 1, non-selective): -0.002763; ES, -His (ERK2 D319N; Experiment 1, selective): -0.1582; ES, +His (ERK2 D319N; Experiment 2, non-selective): -0.0144; ES, -His (ERK2 D319N; Experiment 2, selective): -0.1186; ES, +His (ERK2 D319N; Experiment 3, non-selective): -0.01136; ES, -His (ERK2 D319N; Experiment 3, selective): -0.1057; ES, +His (ERK2 E320K; [5]): -0.008476; Z-Score, +His (ERK2 E320K; [5]): -0.2637; ES, -His (ERK2 E320K; [6]): -0.1355; Z-Score, -His (ERK2 E320K; [6]): -0.3259; ES, +His (ERK2 E320K; Experiment 1, non-selective): 0.001097; ES, -His (ERK2 E320K; Experiment 1, selective): -0.1358; ES, +His (ERK2 E320K; Experiment 2, non-selective): -0.005884; ES, -His (ERK2 E320K; Experiment 2, selective): -0.07688; ES, +His (ERK2 E320K; Experiment 3, non-selective): -0.02064; ES, -His (ERK2 E320K; Experiment 3, selective): -0.1937
21 | CC(C)C[C@H](NC(=O)[C@H](CCCNC(=N)N)NC(=O)[C@@H]1CCCN1C(=O)[C@H](CC(C)C)NC(=O)CNC(=O)[C@H](CCCNC(=N)N)NC(=O)[C@H](CCCNC(=N)N)NC(=O)[C@H](C)NC(=O)[C@H](CCCNC(=N)N)NC(=O)[C@H](CC(N)=O)NC(=O)[C@H](C)NC(=O)[C@@H](N)Cc1ccc(O)cc1)C(=O)N[C@@H](C)C(=O)N[C@H](C(=O)N[C@@H](CO)C(=O)N[C@@H](CC(=O)O)C(=O)O)C(C)C [ISG20 peptide I1N] | – | – | pIC50 (ERK2 WT): 3.72
